Laboratory results as given in patent publication US20130034522A1, “THERAPIES FOR TREATING HEPATITIS C VIRUS INFECTION” (priority 2010, published 2013).
Converted amounts (≈) assume the structure as drawn.

Columns and labels:
[1] = PK of prodrugs of Compound 1 in rats; format: in vivo; details: oral gavage 3 mg/kg, plasma, FIG. 9
Procedure: The prodrugs whose PK parameters are to be determined can be formulated as a solution in 0.5% MC/0.5% Tween 80/99% water and administered orally by gavage to rats at a dose of 3 mg/kg. Rats are weighed the day before the study. Rat plasma is sampled predose and at 15, 30 min, 1, 2, 3, 4, 6, 8, 12 and 24 hrs post dose using Instech automatic blood sampling equipment. Blood is collected in tubes containing K2-EDTA and 110 uL plasma are extracted for analysis. Rats are fed ad lib and standard IACUC and SOP protocols are followed. Plasma samples and dose samples are analyzed using LC/MS/MS for both the prodrug compound and the active metabolite. PK parameters for both analytes for each subject are calculated using the measured dose of prodrug.

[2] = test system: hepatitis C virus (HCV) replicon; assay: HCV replicon cell assay; format: cell-based; details: HCV RNA level, 48-hour incubation
Procedure: Cells containing hepatitis C virus (HCV) replicon were maintained in DMEM containing 10% fetal bovine serum (FBS), 0.25 mg per ml of G418, with appropriate supplements (media A).
On day 1, replicon cell monolayer was treated with a trypsin:EDTA mixture, removed, and then media A was diluted into a final concentration of 100,000 cells per ml with 10,000 cells in 100 μl were plated into each well of a 96-well tissue culture plate, and cultured overnight in a tissue culture incubator at 37° C.
On day 2, compounds (in 100% DMSO) were serially diluted into DMEM containing 2% FBS, 0.5% DMSO, with appropriate supplements (media B). The final concentration of DMSO was maintained at 0.5% throughout the dilution series.
Media on the replicon cell monolayer was removed, and then media B containing various concentrations of compounds was added. […]
A Taqman real-time RT-PCR quantification assay was set up with two sets of specific primers and probe. […] Total RNA extractants from treated HCV replicon cells was added to the PCR reactions for quantification of both HCV and BVDV RNA in the same PCR well. […] The level of HCV RNA in each well was calculated according to a standard curve run in the same PCR plate. The percentage of inhibition or decrease of HCV RNA level due to compound treatment was calculated using the DMSO or no compound control as 0% of inhibition. […]

[3] = male, human, in vivo
Procedure: 25 healthy male volunteers were enrolled.
A dose escalation scheme was used that combined dose doubling and modified Fibonacci to be aggressive in the lower dose range and conservative in the higher dose range.
A pharmacokinetics analysis was performed using the statistical moment approach.

[4] = test system: HCV; details: monotherapy, patients; cited from earlier work

## C[C@@H](N)C(=O)O[C@H]1CC[C@H](N(c2cc(C#CC(C)(C)C)sc2C(=O)O)C(=O)[C@H]2CC[C@H](C)CC2)CC1 [Compound H]
[1]
  in vivo conversion of prodrug: converted into the —OH active metabolite

## CCC[C@H](NC(=O)[C@@H]1[C@H]2CCC[C@H]2CN1C(=O)[C@@H](NC(=O)[C@@H](NC(=O)c1cnccn1)C1CCCCC1)C(C)(C)C)C(=O)C(=O)NC1CC1 [VX-950]
[2]
  IC50: 0.24 µg/mL (≈ 0.353 µM)
  IC90: 0.476 µg/mL (≈ 0.7 µM)
[3]
  eliminated unchanged in the urine: Less than 2%

## interferon alfa
[4]
  long term remission, fraction of cases: ~25%
